Data set [1] has as its target T1, GAL4(DBD)-mouse PXR(LBD) (Mus musculus, UniProt O54915).
T1 construct: together with the pSG5-GAL4(DBD)-h/m/zfPXR(LBD)-puro plasmids; expressed in transfected cells; host or cells: HeLa (HG5LN)
T1 sequence (O54915 143-430 limits assumed): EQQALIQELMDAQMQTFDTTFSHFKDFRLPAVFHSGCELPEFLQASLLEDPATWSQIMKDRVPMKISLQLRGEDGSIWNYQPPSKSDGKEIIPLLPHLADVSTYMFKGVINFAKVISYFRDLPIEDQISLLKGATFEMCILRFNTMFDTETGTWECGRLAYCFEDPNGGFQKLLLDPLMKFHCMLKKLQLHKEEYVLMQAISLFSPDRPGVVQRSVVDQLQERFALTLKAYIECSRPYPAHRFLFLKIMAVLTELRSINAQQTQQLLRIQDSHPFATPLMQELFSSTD
Kind of data set: luciferase reporter transactivation in HG5LN GAL4-mPXR cells. Format: cell-based. Particulars: dabrafenib, SR12813, PCN 3 μM; clotrimazol 1 μM. An excerpt:
(§1) The different reporter cell lines used in this study are summarized in Supplementary Table S1. HG5LN GAL4-m/zfPXR cells were obtained as previously reported for HG5LN GAL4-hPXR cells. Briefly, Hela cells were stably transfected with the GAL4RE5-βGlob-Luc-SVNeo plasmid alone or together with the pSG5-GAL4(DBD)-h/m/zfPXR(LBD)-puro plasmids leading to the HG5LN and HG5LN-h/m/zfPXR cell lines, respectively. HG5LN GAL4-hCAR and GAL4-hCAR-APYLT cells were obtained in the same way.
On the technique in general: In a reporter assay the amount or activity of a reporter protein is the signal.

The subject of data set [2] is PXR (GAL4(DBD)-zebrafish PXR(LBD)). Kind of data set: luciferase reporter transactivation in HG5LN GAL4-zfPXR cells. The class given is cell-based. Particulars: read-out: activation of zebrafish PXR LBD (luciferase), fold induction.
Text: as §1

Data set [3] relates to LS174T-hPXR cells. Kind of data set: MTT proliferation of LS174T-hPXR cells. Format: cell-based, human. As for the experimental part:
(§2) We developed a new proliferation test that we called the P-screen to measure the effects of compounds with PXR activity on the growth of LS174T-hPXR cells. This test uses the same principle as that for E-screen that was used for measuring the effects of estrogens on the proliferation of MCF-7 breast cancer cells. […] The medium was then removed, and cells were treated with increasing concentrations of the different compounds for 7 days. Medium was removed, and 0.1 mL of MTT solution (0.5 mg/mL) was added to each well. The MTT-containing medium was removed 4 h after incubation, and DMSO was added to each well. After shaking, the plates were read in absorbance at 540 nm. Results were expressed as percentage of proliferation with respect to the hormone-free control (100%). Data were obtained by dose–response curves plotted as percentage of proliferation as a function of concentrations.

Data set [4] relates to hPXR target genes (CYP3A4, ABCG2, FGF19) in LS174T-hPXR cells. Kind of data set: RT-qPCR of hPXR target genes in LS174T-hPXR cells. Format: cell-based, human. The protocol: (§3) Total RNA was isolated and purified using “Zymo Research—Quick RNA mini prep” kit for LS174T-hPXR cells and using Trizol reagent (Thermo Fisher Scientific, Illkirch-Graffenstaden, France) for primary human hepatocytes and HepaRG according to the manufacturer’s protocol. The concentration and the purity of isolated RNA were measured using a spectrophotometer NanoVue (GE health care life sciences, Velizy-Villacoublay, France). Reverse transcription was performed with the qScript cDNA SuperMix (VWR, Fontenay-sous-Bois, France) for LS174-hPXR and HepaRG cells and using a random hexaprimer and the MMLV Reverse Transcriptase Kit (Life Technologies) for primary human hepatocytes. Quantitative polymerase chain reactions were performed using SYBR green (Qiagen, Les Ulis, France) and specific primers (Supplementary Table S2) with the LightCycler®-480 real-time PCR system (Roche Diagnostics, Meylan, France). The relative amount of RNA was calculated with the 2^ΔΔCT method, and gene expression was normalized using GAPDH or RPLP0. In Figure 5AB, the level of expression was compared with the mean level of the corresponding gene expression in DMSO-treated cells and expressed as n-fold ratio.
For orientation: Real-time PCR tracks product formation cycle by cycle.

Data set [5] relates to CYP3A4 and CYP2B6 genes in primary human hepatocytes. Nature of the data set: RT-qPCR of hPXR target genes in primary human hepatocytes. The class given is cell-based. Particulars: three donors, 48 h.
Text: Liver samples were obtained from the Biologic Resource Center of Montpellier University Hospital (CRB-CHUM; http://www.chumontpellier.fr; Biobank ID: BB-0033-00031), and this study benefitted from the expertise of Dr. Benjamin Rivière (hepatogastroenterology sample collection) and Dr. Edouard Tuaillon (CRB-CHUM manager). Samples were obtained from livers of adult patients who underwent liver resections for medical reasons unrelated to our research program, or from anonymous donors when the liver was considered unsuitable for organ transplantation. The use of human specimens for scientific purposes was approved by the French National Ethics Committee. Written or oral informed consent was obtained from each patient or family prior to surgery. The clinical characteristics of the liver donors are presented in Supplementary Table S2. Hepatocytes were isolated by using a two-step perfusion protocol and cultured as described previously.
as §3

For data set [6], the system named is LS174T-hPXR cells. Kind of data set: LS174T-hPXR proliferation assay (P-screen) after SPA70 pretreatment. Format: cell-based, human. Particulars: pretreated with SPA70 100 nM; 7 days; read-out: potency (EC50) on proliferation. The protocol:
as §2

Take `CC(=O)[C@H]1[C@H](C#N)C[C@H]2[C@@H]3CC=C4C[C@@H](O)CC[C@]4(C)[C@H]3CC[C@@]21C` [PCN, Pregnenolone 16 alpha-carbonitrile]: the “activation of mouse PXR LBD (luciferase)” value in data set [1] was “Specific agonist effects”.
Take `Clc1ccccc1C(c1ccccc1)(c1ccccc1)n1ccnc1` [clotrimazol]: the fold induction at 16 h, 1 µM in data set [2] came to 5.
Regarding SPA70, the “effect on agonist-activated proliferation” value in data set [3] (SPA70 3 μM with 0.3 μM SR12813 or 0.3 μM dabrafenib) is “abrogated”. For the same compound, in data set [3] (SPA70 3 μM, 7 days), the “effect on basal proliferation” value was “significantly reduced”.
`CCOP(=O)(OCC)C(=Cc1cc(C(C)(C)C)c(O)c(C(C)(C)C)c1)P(=O)(OCC)OCC` [SR12813]: in data set [4] (24 h), the ABCG2 expression increase is 12 fold, the CYP3A4 expression increase was found to be 190 fold and the “concentration of maximal induction of CYP3A4 expression” value stood at 1 µM. The FGF19 expression induction in data set [4] (highest concentration used (3 µM)) is recorded as 4 fold. Besides, in data set [5], the “induction of CYP2B6 gene expression” value is “significantly induce” and the “induction of CYP3A4 gene expression” value is “significantly induce”. Besides, the EC50 in data set [6] was 38 nM.
